Tests used:
[1] = test system: rabbit antisera to 24S-hydroxycholesterol (Day 77 bleed, rabbit #72); assay: Cross-reactivity in competitive 24HC enzyme immunoassay, antiserum of rabbit #72; format: binding; conditions: for % Cross reactivity: Table 2, antiserum Day 77 bleed, rabbit #72, relative to 24HC; for Bleed #72 % Cross reactivity: Table 3, repeat of the rabbit #72 antisera
Experimental: (§1) 24HC Enzyme Immunoassay Protocol
(§2) 1. Known concentrations of 24HC were prepared in 100 mM phosphate, 150 mM NaCl, 1% BSA, pH 7.2 assay buffer containing biotinylated […] (described above) and added to wells of a 96 well microtiter plate that were coated with a goat anti-rabbit IgG antibody. Rabbit polyclonal antibody to 24HC was diluted to a limiting concentration in 100 mM Tris, 150 mM NaCl, 1% BSA buffer and 100 μL was added to each well. The plate was incubated at room temperature for 1 hour with orbital shaking. During this incubation the anti-24HC antibody binds to the goat anti-rabbit IgG antibody on the plate. Also, the 24HC standard competes with the biotinylated 24HC for anti-24HC antibody binding sites. Thus, with more 24HC standard, less biotinylated 24HC binds to the antibody binding sites on the plate.
(§3) 2. Following this incubation, the plate was washed 4 times with 300 μL of 50 mM Tris, 100 mM NaCl, 0.05% Tween-20 buffer. After washing, bound 24HC or bound biotinylated 24HC is bound to the binding sites on the anti-24HC antibodies.
(§4) 3. Streptavidin conjugated to HRP (200 μL), diluted in 100 mM phosphate, 150 mM NaCl, 1% BSA, pH 7.2 assay buffer, was then added to each well to allow detection of the biotinylated 24HC. The plate was then incubated at room temperature for 30 minutes.
(§5) 4. The plate was then washed 4 times with 300 μL of 50 mM Tris, 100 mM NaCl, 0.05% Tween-20 buffer to remove excess streptavidin-HRP conjugate. TMB substrate solution (200 μL) is added to each well. The plates were incubated at room temperature for 30 min.
(§6) 5. After color development, 50 μL of 1N HCl stop solution is added to each well to stop the substrate reaction. The resulting yellow color was read at 450 nm. […]. The intensity of yellow color is inversely proportional to the concentration of 24HC that was added to the well.
The multiple regression line shown therein has an R^2 of 0.996. The detectable range for 24HC for this assay is as shown is 1.56-100 ng/mL. The total assay time is 2 h.
Cross-reactivity of the antisera tested above (Day 77 bleed, rabbit #72) to the following structurally similar molecules was determined:
(§7) Cross-reactivities of antisera taken from another rabbit at Day 77 (rabbit #71), subjected to the same immunization protocol, as well as a repeat of the rabbit #72 antisera, were also determined.

[2] = test system: rabbit antisera to 24S-hydroxycholesterol (Day 77, rabbit #71); assay: Cross-reactivity in competitive 24HC enzyme immunoassay, antiserum of rabbit #71; format: binding; conditions: Table 3; antiserum Day 77, rabbit #71
Experimental: as §1, §2, §3, §4, §5, §6, §7

SMILES | % Cross reactivity [1] | Bleed #72 % Cross reactivity [1] | Bleed #71 % Cross reactivity [2]
CC(C)CC[C@@H](O)[C@@H](C)[C@H]1CC[C@H]2[C@@H]3CC=C4CC(O)CC[C@]4(C)[C@H]3CC[C@]12C (stereo in doubt) [22-Hydroxycholesterol] | 0.15% | 0.11% | 0.020%
C[C@H](CCCC(C)(C)O)[C@H]1CC[C@H]2[C@@H]3CC=C4C[C@@H](O)CC[C@]4(C)[C@H]3CC[C@]12C [25-Hydroxycholesterol] | – | 0.725% | 0.19%
C[C@@H](CO)CCC[C@@H](C)[C@H]1CC[C@H]2[C@@H]3CC=C4C[C@@H](O)CC[C@]4(C)[C@H]3CC[C@]12C [27-Hydroxycholesterol] | – | <0.001% | 0.022%
C[C@]12CC[C@H](O)CC1=CC[C@@H]1[C@@H]2CC[C@]2(C)C(=O)CC[C@@H]12 [DHEA] | 0.05% | 0.018% | 0.015%
CC(C)CCC[C@@H](C)[C@H]1CC[C@H]2[C@@H]3CC=C4C[C@@H](O)CC[C@]4(C)[C@H]3CC[C@]12C [Cholesterol] | <0.001% | 0.003% | 0.002%
